Our source for the Activity and CC20 values is ChEMBL document CHEMBL4831514, “Novel betulin dicarboxylic acid ester derivatives as potent antiviral agents: Design, synthesis, biological evaluation, structure-activity relationship and in-silico study” (Eur J Med Chem, 2021).

Series [1] relates to Human alphaherpesvirus 1. Kind of series: Antiviral activity against Human herpesvirus-1 MacIntyre infected in A549 cells assessed as inhibition of viral adsorption at early stage of replication treated for 1 hr during viral infection followed by replacement with fresh medium and measured after 48 hrs by MTT assay. It counts as functional, organism-based. (Formazan colour is commonly taken as a measure of viable cells.)

In series [2] the test system is Human adenovirus 5. Description: Antiviral activity against Human adenovirus 5 Adenoid 75 infected in A549 cells assessed as reduction in virus titer preincubated for 24 hrs followed by viral infection and measured after 72 hrs by microscopic analysis. It counts as functional, organism-based.
The test system of series [3] is Human alphaherpesvirus 1. Kind of series: Antiviral activity against Human herpesvirus 1 MacIntyre infected in A549 cells assessed as reduction in virus titer preincubated for 24 hrs followed by viral infection and measured after 72 hrs by microscopic analysis. It is filed as functional, organism-based.
The subject of another series is MDCK. Kind of series: Cytotoxicity against MDCK cells assessed as reduction in cell viability incubated for 72 hrs by MTT assay. The conditions noted are these: dog, mdck, 72 h. It counts as cell-based, Canis lupus familiaris.
Series [4] concerns Vesicular stomatitis virus. Kind of series: Antiviral activity against Vesicular stomatitis virus Indiana infected in A549 cells assessed as reduction in virus titer preincubated for 24 hrs followed by viral infection and measured after 72 hrs by microscopic analysis. It is filed as functional, organism-based.
A further series relates to A549. Kind of series: Cytotoxicity against human A549 cells assessed as reduction in cell viability incubated for 48 hrs by MTT assay. It counts as cell-based. The conditions noted are these: a549, 48 h.
In series [5] the test system is Human adenovirus 5. Description: Antiviral activity against Human adenovirus 5 Adenoid 75 infected in A549 cells assessed as inhibition of viral adsorption at early stage of replication treated for 1 hr during viral infection followed by replacement with fresh medium and measured after 72 hrs by MTT assay. It is filed as functional, organism-based.
The test system of another series is Enterovirus E. Description: Antiviral activity against Enterovirus E LCR-4 infected in A549 cells assessed as inhibition of viral adsorption at early stage of replication treated for 1 hr during viral infection followed by replacement with fresh medium and measured after 72 hrs by MTT assay. It is filed as functional, organism-based.

Each structure is given as a SMILES string. Calls of active or inactive are those of the source. The calls are words filed in the database; no cut-off is given here.

Turning to `C#CCNC(=O)c1cccc(C(=O)OC[C@]23CC[C@@H](C(=C)C)[C@@H]2[C@H]2CC[C@@H]4C5(C)CC[C@H](O)C(C)(C)[C@@H]5CC[C@@]4(C)[C@]2(C)CC3)c1` (single isomer, unassigned), the outcome (with Human alphaherpesvirus 1 [1]; with Human adenovirus 5 [2]; with Human alphaherpesvirus 1 [3]; in series [4]; with Human adenovirus 5 [5]; with Enterovirus E) was inactive. In addition, the CC20 in the series with MDCK and in the series with A549 was 159.24 µM each time.
Turning to `C#CC1(NC(=O)c2cccc(C(=O)OC[C@]34CC[C@@H](C(=C)C)[C@@H]3[C@H]3CC[C@@H]5[C@@]6(C)CC[C@H](O)C(C)(C)[C@@H]6CC[C@@]5(C)[C@]3(C)CC4)c2)CCCCC1`, the result (in the series on Human alphaherpesvirus 1 [1]; with Human adenovirus 5 [2]; in the series with Human alphaherpesvirus 1 [3]; in series [4]; in the series on Human adenovirus 5 [5]; in the series with Enterovirus E) was inactive. Further, the CC20 in the series on MDCK and in the series with A549 was 104.82 µM in each case.
Regarding `C#CC1(NC(=O)CCC(=O)OC[C@]23CC[C@@H](C(=C)C)[C@@H]2[C@H]2CC[C@@H]4[C@@]5(C)CC[C@H](O)C(C)(C)[C@@H]5CC[C@@]4(C)[C@]2(C)CC3)CCCCC1`, the outcome (in the series with Human alphaherpesvirus 1 [1]; in the series on Human adenovirus 5 [2]; in the series with Human alphaherpesvirus 1 [3]; in series [4]; in the series on Human adenovirus 5 [5]; in the series with Enterovirus E) was inactive. For the same compound, the CC20 with MDCK came out at 0.77 µM; with A549 it was 110.38 µM.
With `C=C(C)[C@@H]1CC[C@]2(COC(=O)c3ccccc3C(=O)O)CC[C@]3(C)[C@H](CC[C@@H]4[C@@]5(C)CC[C@H](O)C(C)(C)[C@@H]5CC[C@]43C)[C@@H]12`, the result (with Human alphaherpesvirus 1 [1]; in the series on Human adenovirus 5 [2]; in the series with Human alphaherpesvirus 1 [3]; in series [4]; in the series on Human adenovirus 5 [5]; with Enterovirus E) was inactive. Further, the results for the CC20 with MDCK and in the series with A549 were 42.3 µM and 21.15 µM, respectively.
`C=C(C)[C@@H]1CC[C@]2(COC(=O)/C=C(\C)C(=O)N3CCSCC3)CC[C@]3(C)[C@H](CC[C@@H]4[C@@]5(C)CC[C@H](O)C(C)(C)[C@@H]5CC[C@]43C)[C@@H]12`: the outcome (with Human alphaherpesvirus 1 [1]; with Human adenovirus 5 [2]; in the series on Human alphaherpesvirus 1 [3]; in series [4]; in the series with Human adenovirus 5 [5]; in the series with Enterovirus E) was inactive. Moreover, the CC20 in the series with MDCK and in the series with A549 was 61.5 µM in each case.
In the case of `C=C(C)[C@@H]1CC[C@]2(COC(=O)/C=C(\C)C(=O)O)CC[C@]3(C)[C@H](CC[C@@H]4[C@@]5(C)CC[C@H](O)C(C)(C)[C@@H]5CC[C@]43C)[C@@H]12`, the outcome (in the series on Human alphaherpesvirus 1 [1]; in the series with Human adenovirus 5 [2]; with Human alphaherpesvirus 1 [3]; in series [4]; in the series with Human adenovirus 5 [5]; in the series with Enterovirus E) was inactive. Besides, the figures for the CC20 in the series on MDCK and with A549 were 5.63 µM and 11.26 µM, respectively.
For `C=C(C)[C@@H]1CC[C@]2(CO)CC[C@]3(C)[C@H](CC[C@@H]4[C@@]5(C)CC[C@H](O)C(C)(C)[C@@H]5CC[C@]43C)[C@@H]12` [BETULIN], the outcome (in the series on Human alphaherpesvirus 1 [1]; with Human adenovirus 5 [2]; in the series on Human alphaherpesvirus 1 [3]; in series [4]; in the series with Human adenovirus 5 [5]; in the series with Enterovirus E) was inactive. The CC20 with MDCK and in the series on A549 was 28.22 µM in each case.
As for `C=C(C)[C@@H]1CC[C@]2(COC(=O)CCC(=O)N3CCCCC3)CC[C@]3(C)[C@H](CC[C@@H]4[C@@]5(C)CCC(O)C(C)(C)[C@@H]5CC[C@]43C)[C@@H]12` (single isomer, unassigned), the result (in the series on Human alphaherpesvirus 1 [1]; in the series on Human adenovirus 5 [2]; in the series with Human alphaherpesvirus 1 [3]; in series [4]; with Human adenovirus 5 [5]; in the series with Enterovirus E) was inactive. In addition, the values for the CC20 in the series with MDCK and in the series on A549 were 17.46 µM and 69.83 µM, respectively.
As for `C=C(C)[C@@H]1CC[C@]2(COC(=O)CCC(=O)N3CCOCC3)CC[C@]3(C)[C@H](CC[C@@H]4[C@@]5(C)CC[C@H](O)C(C)(C)[C@@H]5CC[C@]43C)[C@@H]12`, the result (with Human alphaherpesvirus 1 [1]; in the series with Human adenovirus 5 [2]; with Human alphaherpesvirus 1 [3]; in series [4]; in the series on Human adenovirus 5 [5]; with Enterovirus E) was inactive. In addition, the CC20 was found to be 4.78 µM in the series on MDCK and 9.63 µM with A549.
For the compound `C=C(C)[C@@H]1CC[C@]2(COC(=O)c3cccc(C(=O)N4CCOCC4)c3)CC[C@]3(C)[C@H](CC[C@@H]4[C@@]5(C)CC[C@H](O)C(C)(C)[C@@H]5CC[C@]43C)[C@@H]12`, the result (with Human alphaherpesvirus 1 [1]; in the series with Human adenovirus 5 [2]; in the series on Human alphaherpesvirus 1 [3]; in series [4]; in the series on Human adenovirus 5 [5]; in the series on Enterovirus E) was inactive. Further, the figures for the CC20 with MDCK and in the series on A549 were 143.47 µM and 71.74 µM, respectively.
As to `C#CC1(NC(=O)CCCC(=O)OC[C@]23CCC(C(=C)C)[C@@H]2[C@H]2CC[C@@H]4[C@@]5(C)CC[C@H](O)C(C)(C)[C@@H]5CC[C@@]4(C)[C@]2(C)CC3)CCCCC1` (single isomer, unassigned), the outcome (in the series on Human alphaherpesvirus 1 [1]; in the series on Human adenovirus 5 [2]; in the series on Human alphaherpesvirus 1 [3]; in series [4]; with Human adenovirus 5 [5]; in the series on Enterovirus E) was inactive. Further, the CC20 with MDCK and in the series with A549 was 108.7 µM each time.
Turning to `C=C(C)[C@@H]1CC[C@]2(COC(=O)c3cccc(C(=O)O)c3)CC[C@]3(C)[C@H](CC[C@@H]4[C@@]5(C)CC[C@H](O)C(C)(C)[C@@H]5CC[C@]43C)[C@@H]12`, the result (with Human alphaherpesvirus 1 [1]; with Human adenovirus 5 [2]; in the series with Human alphaherpesvirus 1 [3]; in series [4]; in the series with Human adenovirus 5 [5]; with Enterovirus E) was inactive. Besides, the CC20 was 42.3 µM with MDCK and 21.15 µM with A549.
Regarding `C=C(C)[C@@H]1CC[C@]2(COC(=O)c3cccc(C(=O)N4CCSCC4)c3)CC[C@]3(C)[C@H](CC[C@@H]4[C@@]5(C)CC[C@H](O)C(C)(C)[C@@H]5CC[C@]43C)C12` (single isomer, unassigned), the outcome (with Human alphaherpesvirus 1 [1]; in the series on Human adenovirus 5 [2]; with Human alphaherpesvirus 1 [3]; in series [4]; in the series on Human adenovirus 5 [5]; in the series with Enterovirus E) was inactive. In addition, the CC20 in the series on MDCK and in the series on A549 was 117.79 µM in each case.
For `C#CCNC(=O)CCC(=O)OC[C@]12CC[C@@H](C(=C)C)C1[C@H]1CC[C@@H]3[C@@]4(C)CC[C@H](O)C(C)(C)[C@@H]4CC[C@@]3(C)[C@]1(C)CC2` (single isomer, unassigned), the result (with Human alphaherpesvirus 1 [1]; with Human adenovirus 5 [2]; in the series on Human alphaherpesvirus 1 [3]; in series [4]; with Human adenovirus 5 [5]; in the series on Enterovirus E) was inactive. The CC20 in the series with MDCK stood at 5.34 µM; with A549, 10.78 µM.
Take `C=C(C)[C@@H]1CC[C@]2(COC(=O)CCC(=O)N3CCSCC3)CC[C@]3(C)[C@H](CC[C@@H]4[C@@]5(C)CC[C@H](O)C(C)(C)[C@@H]5CC[C@]43C)[C@@H]12`: the outcome (in the series with Human alphaherpesvirus 1 [1]; in the series with Human adenovirus 5 [2]; in the series on Human alphaherpesvirus 1 [3]; in series [4]; in the series with Human adenovirus 5 [5]; in the series with Enterovirus E) was inactive. Besides, the results for the CC20 in the series on MDCK and in the series with A549 were 124.84 µM and 62.42 µM, respectively.
Regarding `Nc1ccn(C[C@@H](CO)OCP(=O)(O)O)c(=O)n1.O.O` [CIDOFOVIR], the result in the series on Human alphaherpesvirus 1 [1], in the series on Human adenovirus 5 [5] and in the series with Enterovirus E was inactive. Besides, in the series on A549, the CC20 came to 358.42 µM.
